ChEMBL document CHEMBL2406948, “Skeletal rearrangement of seven-membered iminosugars: synthesis of (-)-adenophorine, (-)-1-epi-adenophorine and derivatives and evaluation as glycosidase inhibitors” (Bioorg Med Chem, 2013)

How the values were obtained:
[1] = biological target: T1, Alpha-glucosidase (Aspergillus niger) (UniProt P56526); experiment: Inhibition of Aspergillus niger alpha-glucosidase at 1000 uM
T1 sequence (whole entry): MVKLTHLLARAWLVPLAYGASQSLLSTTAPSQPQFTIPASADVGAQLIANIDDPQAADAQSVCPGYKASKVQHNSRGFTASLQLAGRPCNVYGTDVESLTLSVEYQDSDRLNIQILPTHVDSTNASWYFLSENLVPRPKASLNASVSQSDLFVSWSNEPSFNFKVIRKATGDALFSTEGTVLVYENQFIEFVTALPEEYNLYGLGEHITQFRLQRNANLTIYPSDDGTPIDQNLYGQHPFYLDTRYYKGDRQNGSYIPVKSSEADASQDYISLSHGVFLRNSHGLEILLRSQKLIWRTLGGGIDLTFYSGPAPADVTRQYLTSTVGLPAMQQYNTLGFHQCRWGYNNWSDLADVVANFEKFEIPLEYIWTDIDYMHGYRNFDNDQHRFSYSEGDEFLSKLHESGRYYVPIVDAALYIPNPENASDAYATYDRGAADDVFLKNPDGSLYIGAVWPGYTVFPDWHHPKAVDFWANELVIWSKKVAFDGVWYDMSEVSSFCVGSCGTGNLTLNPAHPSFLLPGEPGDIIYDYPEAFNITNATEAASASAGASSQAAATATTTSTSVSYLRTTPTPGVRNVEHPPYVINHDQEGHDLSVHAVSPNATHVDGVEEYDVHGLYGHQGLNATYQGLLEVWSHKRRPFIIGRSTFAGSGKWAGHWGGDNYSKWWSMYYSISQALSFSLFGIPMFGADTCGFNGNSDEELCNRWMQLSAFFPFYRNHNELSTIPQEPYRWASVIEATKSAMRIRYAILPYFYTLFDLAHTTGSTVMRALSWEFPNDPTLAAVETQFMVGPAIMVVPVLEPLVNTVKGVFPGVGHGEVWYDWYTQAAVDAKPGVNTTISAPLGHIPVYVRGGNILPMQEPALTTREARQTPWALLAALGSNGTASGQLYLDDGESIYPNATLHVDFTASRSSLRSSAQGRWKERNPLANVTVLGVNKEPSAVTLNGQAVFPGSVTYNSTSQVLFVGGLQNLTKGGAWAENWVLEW

[2] = test system: Prunus dulcis; experiment: Inhibition of almond beta-glucosidase at 1000 uM
[3] = test system: Penicillium decumbens; experiment: Inhibition of Penicillium decumbens alpha-L-rhamnosidase at 1000 uM
[4] = biological target: Oligo-1,6-glucosidase IMA1 (Saccharomyces cerevisiae S288c) (UniProt P53051); experiment: Inhibition of yeast alpha-glucosidase at 1000 uM
[5] = test system: Rhizopus; experiment: Inhibition of Rhizopus sp. amyloglucosidase at 1000 uM
[6] = biological target: T2, Beta-glucuronidase (Bos taurus) (UniProt A3KMY8); experiment: Inhibition of bovine liver beta-glucuronidase at 1000 uM
T2 sequence (whole entry): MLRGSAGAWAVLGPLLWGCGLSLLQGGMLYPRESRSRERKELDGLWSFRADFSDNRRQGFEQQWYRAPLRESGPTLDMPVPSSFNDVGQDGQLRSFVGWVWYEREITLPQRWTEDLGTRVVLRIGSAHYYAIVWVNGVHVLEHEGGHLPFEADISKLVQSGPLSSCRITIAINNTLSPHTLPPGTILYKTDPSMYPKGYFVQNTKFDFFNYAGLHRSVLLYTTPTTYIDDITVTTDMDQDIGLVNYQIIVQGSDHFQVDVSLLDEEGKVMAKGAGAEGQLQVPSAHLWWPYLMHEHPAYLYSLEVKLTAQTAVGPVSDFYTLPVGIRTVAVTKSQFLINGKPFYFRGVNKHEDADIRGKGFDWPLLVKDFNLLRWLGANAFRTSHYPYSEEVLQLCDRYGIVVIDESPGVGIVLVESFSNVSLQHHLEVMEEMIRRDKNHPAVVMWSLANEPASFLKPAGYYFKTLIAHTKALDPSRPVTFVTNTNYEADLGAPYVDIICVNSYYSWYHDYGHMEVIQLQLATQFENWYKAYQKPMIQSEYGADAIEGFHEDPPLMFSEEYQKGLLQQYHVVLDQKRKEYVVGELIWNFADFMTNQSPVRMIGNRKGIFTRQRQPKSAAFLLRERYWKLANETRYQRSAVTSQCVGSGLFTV

[7] = test system: Aspergillus niger; experiment: Inhibition of Aspergillus niger amyloglucosidase at 1000 uM
[8] = test system: Canavalia ensiformis; experiment: Inhibition of jack beans alpha-mannosidase at 1000 uM
[9] = biological target: T3, Uncharacterized protein (Sus scrofa) (UniProt I3LIR5); experiment: Inhibition of pig kidney alpha, alpha trehalase at 1000 uM
T3 sequence (whole entry): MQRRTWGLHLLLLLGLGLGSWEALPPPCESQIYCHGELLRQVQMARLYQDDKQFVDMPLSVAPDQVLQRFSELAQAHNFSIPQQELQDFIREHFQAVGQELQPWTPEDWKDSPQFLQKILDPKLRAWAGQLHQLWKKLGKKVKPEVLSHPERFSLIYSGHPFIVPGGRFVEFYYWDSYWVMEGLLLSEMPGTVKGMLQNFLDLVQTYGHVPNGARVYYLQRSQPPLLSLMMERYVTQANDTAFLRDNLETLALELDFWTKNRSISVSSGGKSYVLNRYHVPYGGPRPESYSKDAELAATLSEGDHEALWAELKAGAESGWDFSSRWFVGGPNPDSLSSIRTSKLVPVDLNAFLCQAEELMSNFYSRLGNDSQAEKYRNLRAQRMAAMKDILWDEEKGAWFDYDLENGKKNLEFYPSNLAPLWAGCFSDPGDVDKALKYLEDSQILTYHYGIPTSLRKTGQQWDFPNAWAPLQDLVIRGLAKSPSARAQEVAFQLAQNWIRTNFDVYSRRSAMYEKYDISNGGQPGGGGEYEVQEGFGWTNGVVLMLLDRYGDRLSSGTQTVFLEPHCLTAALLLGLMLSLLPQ

[10] = test system: Aspergillus niger; experiment: Inhibition of Aspergillus niger beta-glucosidase at 1000 uM
[11] = biological target: Alpha-galactosidase (Coffea arabica) (UniProt Q42656); experiment: Inhibition of coffee bean alpha-galactosidase at 1000 uM
[12] = species on record: Rattus norvegicus; experiment: Inhibition of rat intestinal maltase alpha-glucosidase at 1000 uM
[13] = test system: Helix pomatia; experiment: Inhibition of snail beta-mannosidase at 1000 uM
[14] = test system: Oryza sativa; experiment: Inhibition of rice alpha-glucosidase at 1000 uM

Chain of Alpha-galactosidase (Coffea arabica) (Q42656 16-378 limits assumed): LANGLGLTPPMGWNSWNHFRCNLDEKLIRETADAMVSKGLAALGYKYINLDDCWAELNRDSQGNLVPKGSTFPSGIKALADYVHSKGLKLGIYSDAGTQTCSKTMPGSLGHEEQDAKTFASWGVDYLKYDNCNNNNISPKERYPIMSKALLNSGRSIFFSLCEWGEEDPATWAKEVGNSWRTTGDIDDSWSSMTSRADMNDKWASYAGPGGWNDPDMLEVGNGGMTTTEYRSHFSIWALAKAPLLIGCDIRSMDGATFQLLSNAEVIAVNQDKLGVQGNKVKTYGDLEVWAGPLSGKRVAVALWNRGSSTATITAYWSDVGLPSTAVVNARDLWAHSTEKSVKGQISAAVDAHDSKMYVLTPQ
Chain of Oligo-1,6-glucosidase IMA1 (Saccharomyces cerevisiae S288c) (P53051 whole entry): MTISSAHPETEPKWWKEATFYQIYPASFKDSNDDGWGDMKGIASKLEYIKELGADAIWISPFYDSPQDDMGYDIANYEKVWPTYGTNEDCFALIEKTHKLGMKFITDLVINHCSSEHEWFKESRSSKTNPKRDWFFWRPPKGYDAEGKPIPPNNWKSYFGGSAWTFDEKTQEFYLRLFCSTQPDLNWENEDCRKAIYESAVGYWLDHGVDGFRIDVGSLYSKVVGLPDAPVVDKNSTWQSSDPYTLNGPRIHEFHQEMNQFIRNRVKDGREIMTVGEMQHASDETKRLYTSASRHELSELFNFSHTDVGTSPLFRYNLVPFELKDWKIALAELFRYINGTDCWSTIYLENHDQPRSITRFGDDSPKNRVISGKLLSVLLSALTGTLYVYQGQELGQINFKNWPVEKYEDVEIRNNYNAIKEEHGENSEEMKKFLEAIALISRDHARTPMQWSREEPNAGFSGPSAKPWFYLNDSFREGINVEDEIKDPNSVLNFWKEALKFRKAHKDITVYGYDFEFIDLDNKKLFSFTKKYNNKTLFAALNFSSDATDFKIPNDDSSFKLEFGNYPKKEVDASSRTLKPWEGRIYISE

Row | Structure (SMILES) | inhibition [1] [%] | inhibition [2] [%] | inhibition [3] [%] | inhibition [4] [%] | inhibition [5] [%] | inhibition [6] [%] | inhibition [7] [%] | inhibition [8] [%] | inhibition [9] [%] | inhibition [10] [%] | inhibition [11] [%] | inhibition [12] [%] | inhibition [13] [%] | inhibition [14] [%]
1 | CC[C@@H]1N[C@H](CC)[C@H](O)[C@@H](O)[C@@H]1O | 0 | 21.4 | 0 | 2 | 3.4 | 0.5 | 4.1 | 0.4 | 4.9 | 0 | 3.7 | 0 | 0.3 | 1.7
2 | CCC[C@@H]1N[C@@H](CO)[C@@H](O)[C@H](O)[C@H]1O | 1.4 | 42.6 | 13 | 40 | 0 | 0 | 0 | 5.1 | 0 | 0 | 10.4 | 0 | 1.3 | 0
3 | CC[C@H]1N[C@@H](CO)[C@@H](O)[C@H](O)[C@H]1O | 0 | 16.9 | 2.4 | 9 | 0 | 0 | 1.9 | 5.1 | 0 | 0 | 8.7 | 3.3 | 0 | 0
4 | CC[C@@H]1N[C@@H](CO)[C@@H](O)[C@H](O)[C@H]1O | 6.1 | 33.5 | 37.7 | 0 | 0 | 0.8 | 0 | 0 | 6 | 0 | 0.6 | 0 | 0 | 0
5 | CC[C@@H]1NC[C@@H](O)[C@@H](O)[C@H](O)[C@H]1O | 0.2 | 48.7 | – | 23.5 | 0 | 0.1 | 0 | 11 | 0 | 0 | 7.5 | 13.7 | 0 | 0
6 | CC[C@H]1NC[C@@H](O)[C@@H](O)[C@H](O)[C@H]1O | 0 | 5.1 | 5.3 | 0 | 0 | 0.1 | 0.8 | 0 | 3.9 | 0 | 1.2 | 0 | 0 | 1
